Patent publication US7070940B2, “Method for determining the ability of a compound to modify the interaction between parkin and the p38 protein” (Aventis Pharma S.A., priority 2002, dated 2006)

Columns and labels:
[1] = tested on: interaction Parkin-p38; assay: Reverse two-hybrid screening assay in yeast (growth on 5-fluoroorotic acid); assay type: cell-based, Saccharomyces cerevisiae; conditions: internal control; agar medium with 0.35 g/l 5FOA, 30° C., 48 h and/or 72 h
Excerpt: The Saccharomyces cerevisiae strain used for the screening can be the L40 strain used to clone the p38 protein. However, this strain must contain the URA3 reporter gene in place of the HIS3 reporter gene under the control of a promoter containing a sequence to which the LexA protein attaches to induce transcription. This strain may also contain a disruption in the erg6 gene and/or genes such as pdr5 or pdr11, to increase cell permeability to the compounds tested during the screening (WO96/10082).
This strain is simultaneously transformed with the two plasmids encoding the p38 protein or parkin used in the previous two-hybrid test or else encoding homologous or truncated forms of these two proteins. The interaction between these proteins confers a Ura+phenotype on the doubly-transformed strain, by reconstituting a transcription factor capable of inducing transcription of the URA3 reporter gene. This Ura+ phenotype also makes it possible to use the sensitivity of the strain to 5-fluoorotic acid (5FOA) for reverse two-hybrid “positive” screening. […]
48 h and/or 72 h and they may be read by visual examination. […] The compounds which have made it possible to obtain such a response of strain growth restoration are identified as being positive and recorded in a database.

[2] = tested on: COS7 cells overexpressing p38; assay: p38 perinuclear inclusions (aggresomes) by immunocytochemistry in COS7 cells; assay type: cell-based; conditions: 15 μg/ml overnight
Method: The cells (COS7, 2.5′ 104 and SH-SY5Y cells, 8′ 104) were transfected with the plasmids indicated (pcDNA3-myc-p38, 0.5 ·g; or pcDNA3-myc-p38 and pcDNA3-HA-Parkin, 0.25 ·g of each), and treated or not treated with: epoxomicin (Affiniti, 1 μM), nocodazole (Sigma, 15 μg/ml), cytochalasin D (Sigma, 200 nM) overnight. Forty-eight hours after transfection, the cells were fixed and subjected to standard immunocytochemistry procedures. The polyclonal primary antibodies used were: anti-p38 (M. Mirande, 1:20 000), anti-Parkin (Asp5, 1:400), anti-proteasome 20S (Affiniti, 1:2500), anti-Hsp70 (Stressgen, 1:2500), anti-ubiquitin (Dako, 1:100) and anti-actin (Sigma, 1:100). The monoclonal primary antibodies were: anti ·a-tubulin (clone DM 1A, Sigma, 1:1000), antivimentin (DAKO, clone V9, 1:100) and anti-myc (clone 9E10, Santa Cruz, 1:400). The secondary antibodies were: anti-mouse IgGs conjugated to the fluorochrome Alexa Fluor 488 (Interchim, 1:200) and anti-rabbit IgGs conjugated to the fluorochrome CY3 (Jackson ImmunoResearch, 1:500). The cells were analysed by confocal microscopy.
We analysed the nature and the composition of the p38 protein perinuclear inclusions formed when p38 is overexpressed in cells of the COS7 line. In particular, we wondered whether these inclusions could be of the aggresome type (Kopito et al., 2000). […]

Compound | yeast strain growth in the presence of 5FOA [1] | effect on p38 perinuclear aggregates [2]
O=c1cnn([C@@H]2O[C@H](CO)[C@@H](O)[C@H]2O)c(=O)[nH]1 [6-azauridine] | restores strain growth | –
COC(=O)Nc1nc2ccc(C(=O)c3cccs3)cc2[nH]1 [nocodazole] | – | dispersion of the perinuclear aggregates
